According to patent publication US9434687B2, “Detection of synthetic cannabinoids” (priority 2011, dated 2016):
Where two headings read alike, the source gives them in different places.

Legend:
Format in all cases: binding, sheep
[1] = test system: IgG fraction of antiserum raised to Immunogen I
Experimental: (§1) An aqueous solution of each immunogen was formulated with Freund's Complete Adjuvant (FCA) to form an emulsion consisting of 2 mg/ml*immunogen in 50% (v/v) FCA. Three sheep were immunised with this emulsion (1° immunisation), 0.25 ml being intramuscularly injected at each of four sites in the flank of each animal. Subsequent immunizations (boosts) contained 1 mg/ml*immunogen. All boosts were emulsified in 50% (v/v) Freund's Incomplete Adjuvant (FIA) and were administered in the same manner as the 1° immunisation, at monthly intervals. Blood sampling took place 7 to 14 days after each boost. *The general procedure for immunogen administration is outlined above, however, it was necessary to deviate from this protocol in some cases, due to reduced immunogen concentrations (Immunogens II, IV, VII and VIII) and/or amount available (Immunogen VIII). Any deviations from the protocol described are outlined in Table 5 below and highlighted in bold.
(§2) The wells of an enhanced binding 96 well polystyrene microtiter plate were coated with IgG fraction of antiserum raised to Immunogen I or II, diluted in 10 mM Tris, pH8.5 (125 μl/well). The appropriate antibody coating dilution was determined using standard ELISA checkerboard techniques. The plate was incubated overnight at 4° C., washed 4 times over 10 minutes with Tris buffered saline containing Tween 20 (TBST) and tapped dry. Standard solutions (JWH-018 for Immunogens I and II) were applied at 0, 0.625, 1.25, 2.5, 5, 10, 20 and 40 ng/ml and 50 μl of each was added to the appropriate wells. 75 μl of conjugate (appropriate hapten-HRP) diluted in Tris buffer (pH 7.2) containing EDTA, D-mannitol, sucrose, thimerosal and BSA, was added to each of the wells. The appropriate dilution of conjugate was also determined using standard ELISA checkerboard techniques. The plate was incubated at 25° C. for 1 hour. Excess unbound conjugate was removed by washing 6 times over a 10 minute period with TBST. 125 μl of tetramethylbenzidine (TMB) substrate solution was added to each well of the plate that was then incubated for 20 minutes in the dark at room temperature. The reaction was terminated by addition of 125 μl 0.2M H2SO4 to each well. The absorbance was then measured at 450 nm using a microtiter plate reader. The data are inputted to a computer program called ‘KC Junior’. It is a 4 parameter fit curve and allow the calculation of concentrations between the standard runs. This program is used to calculate the IC50s by dividing the 0 ng/ml OD value by 2 and obtaining the concentration value from the curve for this OD.
In a similar manner to that described above, the wells of a 96-well microtiter plate were coated with the IgG fraction of the antiserum raised to Immunogens I or II. Standard solutions (JWH-018 for Immunogen I and II) were applied at 0, 0.625, 1.25, 2.5, 5, 10, 20 and 40 ng/ml and conjugate was employed as detection reagent.
(§3) The data set out in Tables 7-10 are generated using antibodies raised against the indicated Immunogens in a competitive binding assay with the indicated tracers, using the indicated standards
(§4) In order to determine the specificity of the competitive ELISAs, standard solutions of a range of structurally similar synthetic cannabinoids and their metabolites were prepared in TBST.
(§5) Using the calibration curves generated and employing a single level of cross reactants, these were used to determine the cross-reactivity of each immunoassay with these substances. These are the standards used for the IC50 and cross-reactivity data generation: […]

[2] = test system: IgG fraction of antiserum raised to Immunogen II; test: Competitive ELISA, antibody RS1833B12 to Immunogen II, tracer ESC4555 (Example 36); settings: Antibody to Immunogen II; cross-reactants at 100 ng/ml; 1000 ng/ml; standard JWH-018
Experimental: as §1
as §2, with “The” for “The wells of an enhanced binding 96 well polystyrene microtiter plate were coated with IgG fraction of antiserum raised to Immunogen I or II, diluted in 10 mM Tris, pH8.5 (125 μl/well). The”, “Standard solutions (JWH-018 for Immunogens I and II) were applied at 0, 0.625, 1.25, 2.5, 5, 10, 20 and 40 ng/ml and 50 μl of each was added to the appropriate wells.” left out, “runs.” for “runs. This program is used to calculate the IC50s by dividing the 0 ng/ml OD value by 2 and obtaining the concentration value from the curve for this OD.”
In a similar manner to that described above, the wells of a 96-well microtiter plate were coated with the IgG fraction of the antiserum raised to Immunogens I or II.
as §3, §5

[3] = test system: IgG fraction of antiserum raised to Immunogen IV
Experimental: as §1, §2
(§6) In a similar manner to that described above, the wells of a 96-well microtiter plate were coated with the IgG fraction of the antiserum raised to Immunogens IV, VII or VIII. Standard solutions (JWH-018 for Immunogens IV and VIII, JWH-015 for Immunogen VII) were prepared in TBST at 0, 1.25, 2.5, 5, 10, 20, 40 and 80 ng/ml and conjugate was employed as detection reagent.
as §3, §4, §5

[4] = test system: IgG fraction of antiserum raised to Immunogen VIII
Experimental: as §1, §2, §6, §3, §4, §5

[5] = test system: IgG fraction of antiserum raised to Immunogen VII
Experimental: as §1, §2, §6, §3, §4, §5

[6] = Antibody to Immunogen I, cross-reactants at 100 ng/ml, 1000 ng/ml, standard JWH-018
[7] = Antibody to Immunogen IV, cross-reactants at 100 ng/ml, 1000 ng/ml, standard JWH-018
[8] = Antibody to Immunogen VIII, cross-reactants at 100 ng/ml, 1000 ng/ml, standard JWH-018
[9] = Antibody to Immunogen VII, cross-reactants at 100 ng/ml, 1000 ng/ml, standard JWH-015

Compound	% B/B0 [1, 6] [%]	% B/B0 [2] [%]	% B/B0 [3, 7] [%]	% B/B0 [4, 8] [%]	% B/B0 [5, 9] [%]	% B/B0 [1] [%]	% B/B0 [3] [%]	% B/B0 [4] [%]	% B/B0 [5] [%]
CCCCCCn1cc(C(=O)c2cccc3ccccc23)c2ccccc21 [JWH-019]	7.22	15.42	21.96	74.50	70.05	–	–	–	–
CCCCCn1cc(C(=O)c2cccc3ccccc23)c2ccc(OC)cc21 [JWH-018 6-methoxyindole analogue]	10.55	20.44	90.65	77.22	72.33	–	–	–	–
CCCCCn1cc(C(=O)c2cccc3ccccc23)c2cccc(O)c21 [7-OH JWH-018, JWH-018 7-hydroxyindole metabolite]	6.72	34.79	93.31	94.46	68.53	–	–	–	–
CCCCCn1cc(C(=O)c2ccc(CC)c3ccccc23)c2cc(O)ccc21 [JWH-210 5-hydroxyindole metabolite]	83.29	–	48.91	87.72	100.43	–	–	–	–
CCCCCn1cc(C(=O)Cc2ccccc2OC)c2ccccc21 [JWH-250]	78.94	–	41.08	9.40	97.23	–	–	–	–
CCCCCn1cc(C(=O)c2cccc3ccc(CC)cc23)c2ccccc21 [JWH-210 7-ethylnaphthyl isomer]	73.11	–	27.07	50.90	100.55	–	–	–	–
COc1ccccc1CC(=O)c1cn(CCC2CCCCC2)c2ccccc12 [RCS-8]	82.65	–	85.50	88.79	94.57	–	–	–	–
CCCCn1cc(C(=O)c2ccc(C)c3ccccc23)c2ccccc21 [JWH-073 4-methylnaphthyl analogue]	45.54	–	7.01	19.75	78.36	–	–	–	–
COc1ccc(C(=O)c2cn(CCCCCO)c3ccccc23)cc1 [RCS-4 N-(5-hydroxypentyl) metabolite]	59.51	–	61.03	19.13	94.55	–	–	–	–
CCCCCn1cc(C(=O)c2ccc(CCC)c3ccccc23)c2ccccc21 [JWH-182]	107.08	–	12.83	30.65	98.40	–	–	–	–
(+)-CP 55,940	103.25	–	91.38	95.12	97.15	–	–	–	–
COc1ccc(CC(=O)c2cn(CCC3CCCCC3)c3ccccc23)cc1 [RCS-8 4-methoxy isomer]	94.94	–	90.78	100.72	98.21	–	–	–	–
CCCCCn1cc(C(=O)c2c(OC)ccc3ccccc23)c2ccccc21 [JWH-081 2-methoxynaphthyl isomer]	69.58	–	27.67	58.20	83.43	–	–	–	–
CCCCCn1cc(C(=O)Cc2ccccc2Cl)c2ccccc21 [JWH-203]	72.55	–	52.15	9.19	99.08	–	–	–	–
CCCCCCC(C)(C)c1cc(O)c2c(c1)OC(C)(C)[C@H]1CC=C(CO)C[C@H]21 [HU-211, Dexanabinol]	103.36	–	93.37	92.70	96.78	–	–	–	–
(−)-11-nor-9-Carboxy-delta9-THC	–	–	–	–	–	100.47	93.08	103.36	98.72
COc1ccccc1CC(=O)c1cn(CCCCCC(=O)O)c2ccccc12 [JWH 250 N-(5-carboxypentyl) metabolite]	86.21	–	89.88	89.30	97.60	–	–	–	–
CCCCCCCC(C)(C)c1ccc(C2CCCC(O)C2)c(O)c1 (stereo not drawn) [CP-49,497-C8-homologue]	101.11	–	94.66	104.88	98.55	–	–	–	–
CCCCCn1c(O)c(C(=O)c2cccc3ccccc23)c2ccccc21 [2-OH JWH-018, JWH-018 2-hydroxyindole metabolite]	95.37	–	100.14	101.36	95.08	–	–	–	–
CCCCCn1cc(C(=O)Cc2cccc(Cl)c2)c2ccccc21 [JWH 203 3-chloro isomer]	95.59	–	55.09	10.34	97.42	–	–	–	–
CCCCCn1cc(C(=O)Cc2ccccc2OC)c2cc(O)ccc21 [JWH 250 5-hydroxyindole metabolite]	100.75	–	84.05	67.19	99.88	–	–	–	–
CCCCCn1cc(C(=O)Cc2ccc(Cl)cc2)c2ccccc21 [JWH-206, JWH-203 4-chloro isomer]	75.96	–	65.63	10.55	97.17	–	–	–	–
CCCCCCC(C)(C)c1ccc([C@@H]2C[C@H](O)CC[C@H]2CCCO)c(O)c1 (racemic) [(+−)-CP 55,940]	100.61	–	94.60	100.25	100.25	–	–	–	–
CCCCn1c(O)c(C(=O)c2cccc3ccccc23)c2ccccc21 [2-OH JWH-073, JWH-073 2-hydroxyindole metabolite]	89.62	–	89.63	93.42	92.65	–	–	–	–
CCCCCn1cc(C(=O)Cc2ccc(OC)cc2)c2ccccc21 [JWH-201]	77.14	–	59.03	8.26	100.25	–	–	–	–
COc1ccc(C(=O)c2cn(CCCC(C)O)c3ccccc23)cc1 (stereo not drawn) [RCS-4 N-(4-hydroxypentyl) metabolite]	65.71	–	59.16	8.89	95.72	–	–	–	–
COc1ccc(C(=O)c2c(C)n(CCN3CCOCC3)c3cc(I)ccc23)cc1 [AM-630, 6-Iodopravadoline]	91.12	–	90.17	89.88	99.88	–	–	–	–
